Laboratory results reported in patent publication US6541505B1, “Substituted (aminoiminomethyl or aminomethyl) benzoheteroaryl compounds” (Aventis Pharmaceuticals Inc., priority 1998, dated 2003).
Where a name gives a salt, the structure may show the parent alone.

| SMILES | melting point |
| --- | --- |
| CN(C)CCCOc1ccc(-c2ccc(C(=O)NCCc3ccc4[nH]cc(C(=N)N)c4c3)cc2)cn1 (as salt: salt) [Example 1aaaaab, N-[2-(3-Carbamimidoyl-1H-indol-5-yl)ethyl]-4-[6-(3-dimethylaminopropoxy)pyridin-3-yl]benzamide] | 84 to 86 °C |
| COCCOc1nccc(-c2ccc(C(=O)NCCc3ccc4[nH]cc(C(=N)N)c4c3)cc2)n1 (as salt: salt) [Example 1aaaal, N-[2-(3-Carbamimidoyl-1H-indol-5-yl)-ethyl]-4-[2-(2-methoxyethoxy)-pyrimidin-4-yl]benzamide] | 122 to 124 °C |
| N=C(N)c1c[nH]c2ccc(CCNC(=O)c3ccc(-c4ccnc(OCCN5CCCC5)n4)cc3)cc12 (as salt: salt) [Example 1aaaaq, N-[2-(3-Carbamimidoyl-1H-indol-5-yl)ethyl]-4-[2-(2-pyrrolidin-1-yl-ethoxy)pyrimidin-4-yl]benzamide] | 104 to 105 °C |
| CN1CCN(c2nccc(-c3ccc(C(=O)NCCc4ccc5[nH]cc(C(=N)N)c5c4)cc3)n2)CC1 (as salt: salt) [Example 1aaae, N-[2-(3-Carbamimidoyl-1H-indol-5-yl)ethyl]-4-[2-(4-methylpiperazin-1-yl)pyrimidin-4-yl]benzamide] | 111 to 113 °C |
| N=C(N)c1c[nH]c2ccc(CCNC(=O)c3ccc(-c4cccnc4)cc3)cc12 [Example 1a, N-(2-[3-Carbamimidoyl-5-indolyl]ethyl)-4-pyrid-3-ylbenzamide] | 55 to 58 °C |
| N=C(N)c1c[nH]c2ccc(CCNC(=O)c3ccc(-n4cncn4)nc3)cc12 [Example 1aa, N-(2-[3-Carbamimidoylindol-5-yl]ethyl)-6-(1,2,4)triazol-1-ylnicotinamide] | 196 to 199 °C |
| N=C(N)c1c[nH]c2ccc(CCNC(=O)c3ccc(-c4ccncc4)cc3)cc12 [Example 1aaaaaaa, N-(2-[3-Carbamimidoylindol-5-yl]ethyl)-4-pyrid-4-ylbenzamide] | 113 to 116 °C |
| CN(C)CCNC(=O)Cn1cc(-c2ccc(C(=O)NCCc3ccc4[nH]cc(C(=N)N)c4c3)cc2)ccc1=O [Example 1aaaaad, N-[2-(3-Carbamimidoyl-1H-indol-5-yl)-ethyl]-4-{1-[(2-dimethylaminoethylcarbamoyl)methyl]-6-oxo-1,6-dihydropyridin-3-yl}benzamide] | 71 to 75 °C |
| CN(C)CCOc1ccc(-c2ccc(C(=O)NCCc3ccc4[nH]cc(C(=N)N)c4c3)cc2)cn1 [Example 1aaaaaz, N-(2-[3-Carbamimidoylindol-5-yl]ethyl)-4-(6-[2-dimethylaminoethoxy]pyridin-3-yl)benzamide] | 57 to 59 °C |
| CC(Oc1nccc(-c2ccc(C(=O)NCCc3ccc4[nH]cc(C(=N)N)c4c3)cc2)n1)C(N)=O (stereo not drawn) [Example 1aaaam, N-[2-(3-Carbamimidoyl-1H-indol-5-yl)ethyl]-4-[2-(1-carbamoylethoxy)pyrimidin-4-yl]benzamide] | 159 to 161 °C |
| CN(C)CCCCCCOc1nccc(-c2ccc(C(=O)NCCc3ccc4[nH]cc(C(=N)N)c4c3)cc2)n1 [Example 1aaaan, N-[2-(3-Carbamimidoyl-1H-indol-5-yl)ethyl]-4-[2-(6-dimethylaminohexyloxy)pyrimidin-4-yl]benzamide] | 82 to 84 °C |
| N=C(N)c1c[nH]c2ccc(CCNC(=O)c3ccc(-c4ccnc(OC5CCCNC5=O)n4)cc3)cc12 (stereo not drawn) [Example 1aaaap, N-[2-(3-Carbamimidoyl-1H-indol-5-yl)ethyl]-4-[2-(2-oxopiperidin-3-yloxy)pyrimidin-4-yl]benzamide] | 145 to 147 °C |
| CN(C)CCOc1nccc(-c2ccc(C(=O)NCCc3ccc4[nH]cc(C(=N)N)c4c3)cc2)n1 [Example 1aaaar, N-[2-(3-Carbamimidoyl-1H-indol-5-yl)ethyl]-4-[2-(2-dimethylaminoethoxy)pyrimidin-4-yl]benzamide] | 106 to 107 °C |
| CN(C)CCOc1cccc(-c2ccc(C(=O)NCCc3ccc4[nH]cc(C(=N)N)c4c3)cc2)c1 [Example 1aaaas, 3′-(2-Dimethylaminoethoxy)biphenyl-4-carboxylic acid [2-(3-carbamimidoyl-1H-indol-5-yl)ethyl]amide] | 99 to 101 °C |
| CN(C)CCOc1ccccc1-c1ccc(C(=O)NCCc2ccc3[nH]cc(C(=N)N)c3c2)cc1 [Example 1aaaau, 2′-(2-Dimethylaminoethoxy)biphenyl-4-carboxylic acid [2-(3-carbamimidoyl-1H-indol-5-yl)ethyl]amide] | 73 to 76 °C |
| CN(C)CCCOc1ccccc1-c1ccc(C(=O)NCCc2ccc3[nH]cc(C(=N)N)c3c2)cc1 [Example 1aaaav, 2′-(3-Dimethylaminopropoxy)biphenyl-4-carboxylic acid [2-(3-carbamimidoyl-1H-indol-5-yl)ethyl]amide] | 76 to 78 °C |
| CN(C)CCCOc1cccc(-c2ccc(C(=O)NCCc3ccc4[nH]cc(C(=N)N)c4c3)cc2)c1 [Example 1aaaaw, 3′-(3-Dimethylaminopropoxy)biphenyl-4-carboxylic acid [2-(3-carbamimidoyl-1H-indol-5-yl)ethyl]amide] | 84 to 86 °C |

Second part, the molecule after the results:

| melting point | SMILES |
| --- | --- |
| 100 to 104 °C | N=C(N)c1c[nH]c2ccc(CCNC(=O)c3ccc(-c4ccnc(CNCCCC(=O)O)n4)cc3)cc12 (as salt: salt) [Example 1aaaf, 4-[(4-{4-[2-(3-Carbamimidoyl-1H-indol-5-yl)ethylcarbamoyl]phenyl}pyrimidin-2-yl)methylamino]butyric acid] |
| 117 to 120 °C | N=C(N)c1c[nH]c2ccc(CCNC(=O)c3ccc(-c4ccnc(N5CCCC5CO)n4)cc3)cc12 (stereo not drawn) (as salt: salt) [Example 1aaaj, N-[2-(3-Carbamimidoyl-1H-indol-5-yl)-ethyl]-4-[2-(2-hydroxymethylpyrrolidin-1-yl)-pyrimidin-4-yl]benzamide] |
| 96 to 98 °C | CN(CC(N)=O)c1nccc(-c2ccc(C(=O)NCCc3ccc4[nH]cc(C(=N)N)c4c3)cc2)n1 (as salt: salt) [Example 1aaak, N-[2-(3-Carbamimidoyl-1H-indol-5-yl)-ethyl]-4-[2-(carbamoylmethyl-N-methylamino)-pyrimidin-4-yl]benzamide] |
| 89 to 91 °C | CN(C)CCCCCCNc1nccc(-c2ccc(C(=O)NCCc3ccc4[nH]cc(C(=N)N)c4c3)cc2)n1 (as salt: salt) [Example 1aaar, N-[2-(3-Carbamimidoyl-1H-indol-5-yl)ethyl]-4-[2-(6-dimethylaminohexylamino)pyrimidin-4-yl]benzamide] |
| 156 to 159 °C | CN(C)CCCCNc1nccc(-c2ccc(C(=O)NCCc3ccc4[nH]cc(C(=N)N)c4c3)cc2)n1 (as salt: salt) [Example 1aaas, N-[2-(3-Carbamimidoyl-1H-indol-5-yl)ethyl]-4-[2-(4-dimethylaminobutylamino)pyrimidin-4-yl]benzamide] |
| 152 to 155 °C | N=C(N)c1c[nH]c2ccc(CCNC(=O)c3ccc(-c4ccnc(NC5CC6CCC5C6)n4)cc3)cc12 (stereo not drawn) (as salt: salt) [Example 1aaat, 4-[2-(Bicyclo[2.2.1]hept-2-ylamino)pyrimidin-4-yl]-N-[2-(3-carbamimidoyl-1H-indol-5-yl)ethyl]benzamide] |
| 139 to 141 °C | N=C(N)c1c[nH]c2ccc(CCNC(=O)c3ccc(-c4ccnc(N5CCCC5C(N)=O)n4)cc3)cc12 (stereo not drawn) (as salt: salt) [Example 1aaau, 1-(4-{4-[2-(3-Carbamimidoyl-1H-indol-5-yl)ethylcarbamoyl]phenyl}pyrimidin-2-yl)pyrrolidine-2-carboxylic acid amide] |
| 97 to 100 °C | CN(CCO)c1nccc(-c2ccc(C(=O)NCCc3ccc4[nH]cc(C(=N)N)c4c3)cc2)n1 (as salt: salt) [Example 1aaav, N-[2-(3-Carbamimidoyl-1H-indol-5-yl)ethyl]-4-{2-[(2-hydroxy-ethyl)-N-methylamino]pyrimidin-4-yl}benzamide] |
| > 250 °C | COc1ccc(-c2ccc(C(=O)NCCc3ccc4[nH]cc(C(=N)N)c4c3)cc2)cc1OC (as salt: salt) [Example 1o, 3′,4′-Dimethoxybiphenyl-4-carboxylic acid (2-[3-carbamimidoylindol-5-yl]ethyl)amide] |
| 194 to 195 °C | N=C(N)c1c[nH]c2ccc(CCNC(=O)c3ccc(-c4ccnc(OCC(F)(F)F)n4)cc3)cc12 [Example 1aaag, N-[2-(3-Carbamimidoyl-1H-indol-5-yl)ethyl]-4-[2-(2,2,2-trifluoroethoxy)pyrimidin-4-yl]benzamide] |
| 134 to 136 °C | N=C(N)c1c[nH]c2ccc(CCNC(=O)c3ccc(-c4ccnc(N5CCCC5)n4)cc3)cc12 [Example 1aaah, N-[2-(3-Carbamimidoyl-1H-indol-5-yl)-ethyl]-4-(2-pyrrolidin-1-ylpyrimidin-4-yl)benzamide] |
| 159 to 161 °C | N=C(N)c1c[nH]c2ccc(CCNC(=O)c3ccc(-c4ccnc(NCCCCCCN5CCCC5)n4)cc3)cc12 [Example 1aaal, N-[2-(3-Carbamimidoyl-1H-indol-5-yl)ethyl]-4-[2-(6-pyrrolidin-1-yl-hexylamino)pyrimidin-4-yl]benzamide] |
| 110 to 113 °C | N=C(N)c1c[nH]c2ccc(CCNC(=O)c3ccc(-c4ccnc(NCCCCCCN5CCCCC5)n4)cc3)cc12 [Example 1aaam, N-[2-(3-Carbamimidoyl-1H-indol-5-yl)ethyl]-4-[2-(6-piperidin-1-ylhexylamino)pyrimidin-4-yl]benzamide] |
| 94 to 96 °C | N=C(N)c1c[nH]c2ccc(CCNC(=O)c3ccc(-c4ccnc(NCCCCN5CCCCC5)n4)cc3)cc12 [Example 1aaan, N-[2-(3-Carbamimidoyl-1H-indol-5-yl)ethyl]-4-[2-(4-piperidin-1-ylbutylamino)pyrimidin-4-yl]benzamide] |
| 73 to 76 °C | CCN(CC)CCCCNc1nccc(-c2ccc(C(=O)NCCc3ccc4[nH]cc(C(=N)N)c4c3)cc2)n1 [Example 1aaap, N-[2-(3-Carbamimidoyl-1H-indol-5-yl)ethyl]-4-[2-(4-diethylaminobutylamino)pyrimidin-4-yl]benzamide] |
| 129 to 130 °C | N=C(N)c1c[nH]c2ccc(CCNC(=O)c3ccc(-c4ccnc(NCCCCCCN5CCOCC5)n4)cc3)cc12 [Example 1aaaq, N-[2-(3-Carbamimidoyl-1H-indol-5-yl)ethyl]-4-[2-(6-morpholin-4-ylhexylamino)pyrimidin-4-yl]benzamide] |
